Experimental data from paper PMC10049354, “Anti-Inflammatory Effects and Photo- and Neuro-Protective Properties of BIO203, a New Amide Conjugate of Norbixin, in Development for the Treatment of Age-Related Macular Degeneration (AMD)” (International Journal of Molecular Sciences, 2023).

Key:
[1] = system: albino rats exposed to blue-light-induced photoreceptor degeneration; assay: Blue-light damage (BLD) study in albino rats: retinal histology (photoreceptor layers); type: in vivo, rat; settings: for preservation of retinal structure (photoreceptor layers): four IP administrations, 6 h blue-light exposure
Description: At the end of the measurement period on Day 7, rats were euthanized by an intraperitoneal injection of pentobarbital. Immediately after euthanasia, both eyeballs were sampled, fixed in Davidson’s solution, and processed for histology. Sections (5 to 7 µm thick) were performed along the vertical meridian and stained with Haematoxylin/Eosin stain. The vertical meridian included the optic nerve. […] The thickness of the outer nuclear layer was measured on each point. […] Histology and photoreceptor counting in mice were performed as previously described.
(§1) Sixty-four animals were selected based on good health and on scotopic electroretinogram performed before induction when the A-wave amplitude of both eyes was in the range of the global mean (all animals) of A-wave amplitude ± 1.96 SD. Animals were then randomized into the study groups using a macro function in Excel® software based on the A-wave amplitude of both eyes (mean value). On Day 0, BIO203, negative controls, and comparator (N-tert-Butyl-a-phenylnitrone (PBN)) were intraperitoneally injected using a 25 G needle in rats that have been dark-adapted for 36 h. Individually housed rats were then exposed for 6 h (±5 min) to a continuous blue, fluorescent light (400–540 nm) in clear plastic cages. After exposure and administration, the rats were placed in a dark room for 24 h (±1 h) and then were returned to rearing cyclic light conditions.

[2] = Ocular PK in rats following four repeated IP administrations; type: in vivo; settings: rat eye; for ocular exposure: BIO201 10 mg/kg, BIO203 2.5 mg/kg
Description: The compounds were administered to 8–9 months old Male Sprague-Dawley rats (n = 3 per group and per collection time) by four successive intraperitoneal administrations in vehicle (DMSO/NaCl/NaOH for BIO203 and PBS/Tween 80 (95/5) for BIO201). The solutions of BIO203 and BIO201 were centrifuged, and the clear supernatants were administered to rats. Administered volume was 10 mL/kg, and the final injected concentrations were 10 mg/kg and 2.5 mg/kg for BIO201 and BIO203, respectively. Again, doses administered differ because BIO201 and BIO203 solubility are not equivalent in their respective vehicles. The dose of BIO203 was reduced to avoid toxicity of DMSO present in the vehicle, but the same volumes were injected into animals. The eyes were collected 1 h after administrations n°1 to 4 according to the following timing: 1 h, 3.5 h, 5.5 h, and 7.5 h. After euthanasia, the two eyes of each rat were collected in a Precellys tube, frozen, and stored at −80 °C.
Analysis was performed on an LC 1260 System coupled with Mass Spectrometer QQQ-6420 with DAD (Agilent Technologies). Norbixin and BIO203 were eluted from a reverse-phase column (2.1 × 50 mm; 3 μm particles; Ace Excel C18) with the following gradient of acetonitrile in water (both containing 0.1% formic acid): 55 to 100% in 5 min), (flowrate: 0.3 mL/min). […] were monitored by a mass spectrometer, in positive MRM mode, with the following transitions, respectively, 381.1 -> 144.9 and 478.1 -> 362.9. For quantification of BIO201 and BIO203, calibration curves were prepared under the same conditions as the sample matrix, with various amounts of BIO201 or BIO203 (25 to 10,000 ng/mL in plasma and 5 to 500 ng/mL for eyes).
For determination of concentrations of BIO201 or BIO203 in ocular tissues, each eye was homogenized in CHCl3/MeOH (1:1, v/v) (0.5 mL) with a homogenizer (Precellys-24) during 2 cycles (30 s) at 6500 rpm. The internal standard (retinoic acid at 10 µg/mL) was added, and the organic layer was extracted. The homogenate was then extracted two times with CHCl3/CH2Cl2 (0.5 mL). […]

[3] = system: primary porcine RPE cells; assay: RPE phototoxicity: photoprotection of RPE cells exposed to A2E and blue light; type: cell-based, pig; settings: A2E 30 μM + blue-light illumination
Description: RPE cells were obtained from pig eyes, as previously described. RPE cells were seeded on a 96-well plate at a density of 1.5 × 10^5 cells/cm^2 in DMEM 2% FCS. BIO201, BIO203, or its pure enantiomers were added in increasing concentrations to the culture medium 48 h before illumination. A2E was added to the medium at a final concentration of 30 μM, and 19 h later, blue-light illumination was performed for 50 min using a 96 blue-led device (Durand, St Clair de la Tour, France) emitting at 470 nm (1440 mcd, 8.6 mA). Just before illumination, the culture medium was replaced by a modified DMEM without any photosensitizer and with 2% FCS. Twenty-four hours after blue-light irradiation, all cell nuclei were stained with Hoechst 33342, and nuclei of dead cells with ethidium homodimer 2, fixed with paraformaldehyde (4% in PBS, 10 min) and 9 pictures per well were captured using a fluorescence microscope (Nikon TiE) equipped with a CoolSNAP HQ2 camera and driven by Metamorph Premier On-Line program. Quantification of live cells was performed using Metamorph Premier Off-Line and a homemade program by subtraction of dead cells from all cells. For cytokines mRNA analysis, RPE cells were seeded in 24-well plates and left untreated or treated with A2E or BIO203 alone or A2E plus BIO203. After 48 h, cells were lysed using the lysis buffer from the NucleoSpin® RNA kit, and the samples were stored at −80 °C.

[4] = system: albino rats exposed to blue-light-induced photoreceptor degeneration; assay: Blue-light damage (BLD) study in albino rats: ERG; type: in vivo, rat; settings: for effect on visual function (ERG A-wave and B-wave): four IP administrations; for efficacy dose in the rat model of BLD: IP
Description: The ERG in rats was performed using the electrophysiological system RETI-animal® from Roland Consult. ERG was recorded on both eyes from overnight dark-adapted animals. Rats were anesthetized by an intramuscular injection of a mix of Rompun® (xylazine)/Imalgene® (ketamine) before ERG measurement. Ten to fifteen minutes before measurement, one drop of Mydriaticum® (0.5% tropicamide) was instilled for pupillary dilatation. The A-wave and B-wave implicit times (ms) and amplitudes (µV) were measured for each ERG. The B-wave amplitude (value and %) was given as informative data. ERG parameters: Ganzfeld Q450C, Color: white maximum, Maximum intensity: 3 cd/m^2 (0 dB); Duration 0.24 ms; number of flashes: 1, Filter: 50 Hz, Impedance threshold: 50 kΩ. For scotopic ERGs, the A-wave amplitudes were measured from the baseline to the peak of the negative potential, whereas B-wave amplitudes were measured from the trough of the A-wave to the peak of the positive potential. The recordings obtained from these analyses were tabulated and normalized (%) for each eye. Group means, standard deviation, and median values were calculated, considering each eye from one animal as a separate value. ERG recordings in mice were performed as previously described.
as §1

Q: Which “preservation of retinal structure (photoreceptor layers)” value (from here on “preservation of retinal structure”) ([1]; 5 mg/kg) does the source give for COC1CCCN(C(=O)/C=C/C(C)=C/C=C/C(C)=C/C=C/C=C(C)/C=C/C=C(C)\C=C\C(=O)O)C1 (stereo not drawn) [BIO203] here?
A: did not observe neuroprotection

Q: And the “preservation of retinal structure” value ([1]; 10 mg/kg)?
A: did not observe neuroprotection

Q: And the “preservation of retinal structure” value ([1]; 25 mg/kg, p < 0.0001)?
A: partially preserved the retinal structure

Q: What about the “neuroprotective effect compared to vehicle (preliminary experiment)” value ([1]; BIO203 at 2.5 mg/mL (so in the source), IP, rat BLD) of the same compound?
A: limited neuroprotective effect

Q: And the “ocular exposure of BIO203 relative to BIO201” value [2]?
A: approximately 10 times

Q: And the ocular exposure [2]?
A: 144.9 ng·h/eye

Q: What about the “concentration from which protective effect was observed” value [3] of the same compound?
A: ≥ 10 µM

Q: What about the “concentration of maximum efficacy / highest protection” value [3] of the same compound?
A: 15 µM

Q: What about the “effect on visual function (ERG A-wave and B-wave)” value (“effect on visual function” below) ([4]; 5 mg/kg, ERG 7 days after blue light) of the same compound?
A: no significant effect

Q: And the “effect on visual function” value ([4]; 10 mg/kg, ERG 7 days after blue light)?
A: no significant effect

Q: What about the “effect on visual function” value ([4]; 25 mg/kg, ERG 7 days after blue light, p < 0.0001) of the same compound?
A: protective effect

Q: What about the “efficacy dose in the rat model of BLD” value [4] of the same compound?
A: 25 mg/kg

Q: Which results are given for CC(=C/C=C/C(C)=C/C=C/C=C(C)/C=C/C=C(C)/C=C/C(=O)O)/C=C/C(=O)O [norbixin, 9′-cis-norbixin]?
A: preservation of retinal structure (photoreceptor layers) ([1]; 50 mg/kg, p < 0.0001): partially preserved the retinal structure; ocular exposure [2]: 16.7 ng·h/eye; survival of RPE cells ([3]; 20 μM compound): more than 80%; concentration of maximum efficacy / highest protection [3]: 20 µM; effect on visual function (ERG A-wave and B-wave) ([4]; 50 mg/kg, positive controls): protected the visual functions; efficacy dose in the rat model of BLD [4]: 50 mg/kg
